In US20110224210A1, “NOVEL BIS-AMIDES AS ANTI-MALARIAL AGENTS” (priority 2008, published 2011):

These molecules were tested on P. falciparum K1 (strain resistant to chloroquine and pyrimethamine), erythrocytic stages (assay: Plasmodium falciparum in vitro assay, [3H] hypoxanthine incorporation). Settings: Plasmodium falciparum, K1, P. falciparum strain K1; [3H] hypoxanthine incorporation; read-out: IC50 (nM) on K1.
Type: cell-based
Outline: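 Chloroquine/pyrimethamine-resistant K1 erythrocytic cultures (2.5% haematocrit, 0.3% parasitaemia, hypoxanthine-free RPMI with Albumax) exposed to seven doubling dilutions at 37 °C under low O2.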

SMILES	IC50
COc1cccc(COCCN(C)C(=O)[C@H](Cc2ccccc2)N(Cc2ccc(N3CCOCC3)cc2)C(=O)C=Cc2ccc(C(F)(F)F)cc2)c1 [Example 191, (S)-N-(1-{[2-(3-Methoxy-benzyloxy)-ethyl]-methyl-carbamoyl}-2-phenyl-ethyl)-N-(4-morpholin-4-yl-benzyl)-3-(4-trifluoromethyl-phenyl)-acrylamide, formic acid]	11 nM
COCCN(C)C(=O)[C@H](Cc1ccccc1)N(Cc1ccc(-c2ccccn2)cc1)C(=O)C=Cc1ccc(C)nc1 [Example 84, (S)-N-{1-[(2-Methoxy-ethyl)-methyl-carbamoyl]-2-phenyl-ethyl}-3-(6-methyl-pyridin-3-yl)-N-(4-pyridin-2-yl-benzyl)-acrylamide]	27 nM
CC(=O)N1CCN(c2ccc(CN(C(=O)C=Cc3ccc(C(F)(F)F)cc3)[C@@H](Cc3ccccc3)C(=O)N(C)CCN(C)Cc3ccc(OCCCN(C)C)cc3)cc2)CC1 [Example 246, (S)-N-[4-(4-Acetyl-piperazin-1-yl)-benzyl]-N-{1-[(2-{[4-(3-dimethylamino-propoxy)-benzyl]-methyl-amino}-ethyl)-methyl-carbamoyl]-2-phenyl-ethyl}-3-(4-trifluoromethyl-phenyl)-acrylamide]	64 nM
CN(Cc1ccc(NC(=O)c2ccccc2)cc1)C(=O)[C@H](Cc1ccccc1)N(Cc1ccc(N2CCOCC2)cc1)C(=O)C=Cc1ccc(C(F)(F)F)nc1 [Example 275, (S)-N-(4-{[Methyl-(2-{(4-morpholin-4-yl-benzyl)-[3-(6-trifluoromethyl-pyridin-3-yl)-acryloyl]-amino}-3-phenyl-propionyl)-amino]-methyl}-phenyl)-benzamide]	59 nM
CN(CCN(C)C(=O)[C@H](Cc1ccccc1)N(Cc1ccc(N2CCOCC2)cc1)C(=O)C=Cc1ccc(C(F)(F)F)cc1)Cc1cncnc1 [Example 267, (S)-N-(1-{Methyl-[2-(methyl-pyrimidin-5-ylmethyl-amino)-ethyl]-carbamoyl}-2-phenyl-ethyl)-N-(4-morpholin-4-yl-benzyl)-3-(4-trifluoromethyl-phenyl)-acrylamide]	40 nM
COCCN(C)C(=O)[C@H](Cc1ccccc1)N(Cc1ccc(N2CCN(C(C)=O)CC2)cc1)C(=O)C=Cc1ccc(C(F)(F)F)cn1 [Example 116, (S)-N-[4-(4-Acetyl-piperazin-1-yl)-benzyl]-N-{1-[(2-methoxy-ethyl)-methyl-carbamoyl]-2-phenyl-ethyl}-3-(5-trifluoromethyl-pyridin-2-yl)-acrylamide]	< 8 nM
COc1cc(CN(C)CCN(C)C(=O)[C@H](Cc2ccccc2)N(Cc2ccc(N3CCN(C(C)=O)CC3)cc2)C(=O)C=Cc2ccc(C(F)(F)F)cc2)cc(OC)c1 [Example 236, (S)-N-[4-(4-Acetyl-piperazin-1-yl)-benzyl]-N-[1-({2-[(3,5-dimethoxy-benzyl)-methyl-amino]-ethyl}-methyl-carbamoyl)-2-phenyl-ethyl]-3-(4-trifluoromethyl-phenyl)-acrylamide]	68 nM
CN(CCN(C)C(=O)[C@H](Cc1ccccc1)N(Cc1ccc(-c2ccccn2)cc1)C(=O)C=Cc1ccc(C(F)(F)F)cc1)Cc1ccccn1 [Example 224, (S)-N-(1-{Methyl-[2-(methyl-pyridin-2-ylmethyl-amino)-ethyl]-carbamoyl}-2-phenyl-ethyl)-N-(4-pyridin-2-yl-benzyl)-3-(4-trifluoromethyl-phenyl)-acrylamide]	29 nM
CC(=O)N1CCN(c2ccc(CN(C(=O)C=Cc3ccc(C(F)(F)F)nc3)[C@@H](Cc3ccccc3)C(=O)N(C)CCOCCOCc3ccccc3)cc2)CC1 [Example 216, (S)-N-[4-(4-Acetyl-piperazin-1-yl)-benzyl]-N-(1-{[2-(2-benzyloxy-ethoxy)-ethyl]-methyl-carbamoyl}-2-phenyl-ethyl)-3-(6-trifluoromethyl-pyridin-3-yl)-acrylamide]	94 nM
